Results reported in paper PMC6934184, “Selective DNA-PKcs inhibition extends the therapeutic index of localized radiotherapy and chemotherapy” (The Journal of Clinical Investigation, 2019).

Molecular target: T1, PHKG1 (Homo sapiens, UniProt Q16816)
T1 construct: purchased Thermo Fisher Scientific (Life Technologies) SelectScreen
Assay: SelectScreen Z'LYTE
Type: biochemical
Method in brief: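 NU5455 was profiled across the SelectScreen Broad panel of kinase activity and binding assays. Z'LYTE reactions such as CSF1R ran at apparent Km ATP, while the Adapta CAMK1 assay used ATP listed as 10. Values are given as percent.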

T1 sequence (Q16816 whole entry): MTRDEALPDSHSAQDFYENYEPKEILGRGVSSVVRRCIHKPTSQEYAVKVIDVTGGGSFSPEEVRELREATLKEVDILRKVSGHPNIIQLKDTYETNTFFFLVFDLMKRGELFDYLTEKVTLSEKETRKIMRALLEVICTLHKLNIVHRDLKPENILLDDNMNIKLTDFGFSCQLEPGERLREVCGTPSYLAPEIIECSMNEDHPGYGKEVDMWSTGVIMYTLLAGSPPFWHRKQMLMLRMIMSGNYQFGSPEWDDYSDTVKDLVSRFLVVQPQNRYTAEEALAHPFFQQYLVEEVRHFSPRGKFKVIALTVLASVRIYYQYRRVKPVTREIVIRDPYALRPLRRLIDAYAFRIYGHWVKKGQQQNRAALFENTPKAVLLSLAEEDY

## CN(C(=O)CN1CCOCC1)c1ccc2sc3c(-c4cccc5c(=O)cc(N6CC7CCC(C6)O7)oc45)cccc3c2c1 [NU5455]
  inhibition at 1 µM: -5%
